Experiment [1] has as its system phosphorylation of Serine 473 in Akt, HCT 116 human colon carcinoma cells. The experiment in a line: Cell-based phospho-AKT Ser473 assay (MSD sandwich immunoassay, IGF-1 stimulated). To be noted: Homo sapiens, HCT-116, HCT 116 cells; read-out: HCT 116 pAKT IC50. A digest of the protocol: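 Akt Ser473 phosphorylation was measured by MSD electrochemiluminescent sandwich immunoassay in lysates of HCT116 cells (16,000 cells/well). Cells received a compound dilution series for 2 h at 37 °C before a 15 min IGF-1 (100 ng/ml) stimulus, with IC50 calculated from the dose-response.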

The next experiment addresses T1, PI3K α (Homo sapiens, UniProt P42336).
T1 construct: Full length p110 subunits of PI3K α, β and δ, N-terminally labeled with polyHis tag; polyHis (N); made in house; host or cells: Sf9 insect cells (baculovirus)
The experiment in a line: In vitro PI3 kinase enzyme assay (alpha), ATP loss, bioluminescence.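 Note: purified p110α/p85 heterodimer acting on PtdIns(4,5)P2 at room temperature, remaining ATP read by luminescence, inhibition scaled between compound-free wells with and without enzyme.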 The format is biochemical. To be noted: read-out: PI3Kα ATP loss IC50.

A further experiment deals with T2, PI3K β (Homo sapiens, UniProt P42338).
T2 construct: Full length p110 subunits of PI3K α, β and δ, N-terminally labeled with polyHis tag; polyHis (N); made in house; host or cells: Sf9 insect cells (baculovirus)
The experiment in a line: In vitro PI3 kinase enzyme assay (beta), ATP loss, bioluminescence.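 Note: purified p110β/p85 heterodimer with PtdIns(4,5)P2 as acceptor, incubated at room temperature, leftover ATP read by luminescence, inhibition scaled to compound-free wells with and without enzyme.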 The format is biochemical. To be noted: read-out: PI3Kβ ATP loss IC50.

pIC50: −log10 of the molar value. A value given as a limit tells only on which side of the number the result lay.

T1 sequence (P42336 whole entry, species assumed): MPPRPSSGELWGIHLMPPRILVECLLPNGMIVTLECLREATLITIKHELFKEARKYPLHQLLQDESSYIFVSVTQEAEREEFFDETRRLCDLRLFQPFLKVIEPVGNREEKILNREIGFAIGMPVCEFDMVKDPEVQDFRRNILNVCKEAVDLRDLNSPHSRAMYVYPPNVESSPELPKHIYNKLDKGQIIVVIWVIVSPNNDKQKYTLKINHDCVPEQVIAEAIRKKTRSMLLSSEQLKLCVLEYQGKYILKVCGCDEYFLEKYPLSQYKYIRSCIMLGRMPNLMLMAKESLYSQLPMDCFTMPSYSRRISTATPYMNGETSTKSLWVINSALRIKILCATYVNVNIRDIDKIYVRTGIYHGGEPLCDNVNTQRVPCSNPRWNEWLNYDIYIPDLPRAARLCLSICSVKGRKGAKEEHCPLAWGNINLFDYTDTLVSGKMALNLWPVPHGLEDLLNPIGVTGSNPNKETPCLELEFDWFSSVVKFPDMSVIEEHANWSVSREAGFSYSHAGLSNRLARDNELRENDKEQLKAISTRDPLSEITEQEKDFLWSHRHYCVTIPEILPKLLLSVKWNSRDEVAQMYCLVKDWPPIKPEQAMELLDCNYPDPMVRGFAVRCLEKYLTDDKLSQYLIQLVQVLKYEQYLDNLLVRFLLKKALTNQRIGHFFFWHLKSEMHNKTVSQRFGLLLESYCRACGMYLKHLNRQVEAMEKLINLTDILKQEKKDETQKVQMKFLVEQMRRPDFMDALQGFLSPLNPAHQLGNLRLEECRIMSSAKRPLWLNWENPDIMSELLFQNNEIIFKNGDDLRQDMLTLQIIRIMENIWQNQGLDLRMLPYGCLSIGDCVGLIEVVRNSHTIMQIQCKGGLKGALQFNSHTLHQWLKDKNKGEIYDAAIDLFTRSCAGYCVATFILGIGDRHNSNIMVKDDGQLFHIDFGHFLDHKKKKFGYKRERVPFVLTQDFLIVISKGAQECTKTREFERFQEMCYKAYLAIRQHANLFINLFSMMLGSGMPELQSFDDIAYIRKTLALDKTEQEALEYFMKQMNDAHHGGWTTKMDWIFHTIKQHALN
T1 sequence (P27986 whole entry partner, species assumed): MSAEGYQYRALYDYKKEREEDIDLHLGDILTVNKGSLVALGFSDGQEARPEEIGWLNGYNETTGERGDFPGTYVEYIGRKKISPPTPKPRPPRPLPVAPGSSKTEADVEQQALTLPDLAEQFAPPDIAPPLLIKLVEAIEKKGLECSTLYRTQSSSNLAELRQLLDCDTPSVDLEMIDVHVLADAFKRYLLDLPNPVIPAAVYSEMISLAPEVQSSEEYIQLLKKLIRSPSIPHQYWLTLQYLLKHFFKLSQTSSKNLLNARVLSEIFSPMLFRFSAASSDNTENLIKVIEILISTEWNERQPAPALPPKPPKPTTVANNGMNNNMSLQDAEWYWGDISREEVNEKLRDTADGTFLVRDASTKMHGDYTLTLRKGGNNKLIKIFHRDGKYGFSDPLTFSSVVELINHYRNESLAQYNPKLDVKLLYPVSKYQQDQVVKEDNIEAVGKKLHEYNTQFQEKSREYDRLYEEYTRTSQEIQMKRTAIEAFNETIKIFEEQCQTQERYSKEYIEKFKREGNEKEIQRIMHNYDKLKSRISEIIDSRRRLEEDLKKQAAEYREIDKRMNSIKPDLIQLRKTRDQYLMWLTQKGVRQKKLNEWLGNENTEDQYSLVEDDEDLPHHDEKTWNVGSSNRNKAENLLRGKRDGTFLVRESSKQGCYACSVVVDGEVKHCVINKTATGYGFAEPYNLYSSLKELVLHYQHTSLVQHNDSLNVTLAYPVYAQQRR
T2 sequence (P42338 whole entry): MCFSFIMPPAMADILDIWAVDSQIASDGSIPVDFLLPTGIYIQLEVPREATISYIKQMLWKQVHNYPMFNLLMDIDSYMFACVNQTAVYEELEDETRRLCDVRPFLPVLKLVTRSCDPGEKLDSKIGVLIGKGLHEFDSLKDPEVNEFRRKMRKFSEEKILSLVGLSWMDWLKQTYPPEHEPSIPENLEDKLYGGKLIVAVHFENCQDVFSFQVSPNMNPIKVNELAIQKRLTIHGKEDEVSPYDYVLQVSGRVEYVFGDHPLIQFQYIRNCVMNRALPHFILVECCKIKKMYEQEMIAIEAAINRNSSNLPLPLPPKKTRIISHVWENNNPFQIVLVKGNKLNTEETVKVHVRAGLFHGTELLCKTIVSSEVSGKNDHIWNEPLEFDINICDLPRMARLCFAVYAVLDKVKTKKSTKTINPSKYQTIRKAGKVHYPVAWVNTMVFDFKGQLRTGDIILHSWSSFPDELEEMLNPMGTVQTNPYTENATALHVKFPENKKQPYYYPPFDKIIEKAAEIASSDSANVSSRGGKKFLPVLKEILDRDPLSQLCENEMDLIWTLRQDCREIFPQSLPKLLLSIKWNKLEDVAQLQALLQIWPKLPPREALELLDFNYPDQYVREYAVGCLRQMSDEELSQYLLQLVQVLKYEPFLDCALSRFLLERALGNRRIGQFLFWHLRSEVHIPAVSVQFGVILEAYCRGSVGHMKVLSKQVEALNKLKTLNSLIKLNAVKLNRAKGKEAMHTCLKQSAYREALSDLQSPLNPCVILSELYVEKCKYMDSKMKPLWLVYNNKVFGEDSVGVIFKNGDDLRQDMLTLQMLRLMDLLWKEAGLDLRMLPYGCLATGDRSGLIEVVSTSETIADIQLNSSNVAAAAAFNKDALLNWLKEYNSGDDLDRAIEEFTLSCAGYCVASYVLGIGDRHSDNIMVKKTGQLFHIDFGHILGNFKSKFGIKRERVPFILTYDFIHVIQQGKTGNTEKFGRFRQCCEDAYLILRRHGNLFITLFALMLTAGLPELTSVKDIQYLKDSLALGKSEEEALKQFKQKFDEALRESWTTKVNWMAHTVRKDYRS
T2 sequence (P27986 whole entry partner): as the sequence (P27986 whole entry partner, species assumed) above

A word on the pIC50: it is the negative decadic logarithm of the IC50, by convention in mol/L. For `CC(=O)Nc1nc2ccc(-c3ccnc(OCc4ccc5ncccc5c4)n3)cc2s1` [Example 22, N-(6-(2-(6-quinolinylmethoxy)-4-pyrimidinyl)-1,3-benzothiazol-2-yl)acetamide], the figures for the pIC50 (in experiment [1]; at PI3K α; at PI3K β) were under 4.40, 6.91 and under 4.40, respectively.
As for `CC(=O)Nc1nc2ccc(-c3cncc(OCc4ccccc4)n3)cc2s1` [Example 135, N-(6-(6-(benzyloxy)-2-pyrazinyl)-1,3-benzothiazol-2-yl)acetamide], the values for the pIC50 (in experiment [1]; on PI3K α; on PI3K β) were 5.71, 7.27 and 6.66, respectively.
In the case of `CC(=O)Nc1nc2ccc(-c3cncc(Cl)n3)cc2s1` [Example 150, N-(6-(6-chloro-2-pyrazinyl)-1,3-benzothiazol-2-yl)acetamide], the pIC50 in experiment [1] is 6.30; on PI3K α, 6.73; at PI3K β, 6.04.
Take `CC(=O)Nc1nc2ccc(-c3cccc(NS(=O)(=O)c4ccc(C)cc4)c3)nc2s1` [Example 136, N-(5-(3-(4-methylphenylsulfonamido)phenyl)thiazolo[5,4-b]pyridin-2-yl)acetamide]: the figures for the negative-log IC50 (pIC50) (in experiment [1]; at PI3K α; at PI3K β) were 6.76, 7.23 and 6.70, respectively.
As to `CC(=O)Nc1nc2ccc(-c3cnc(Cl)c(NS(=O)(=O)Cc4ccccc4)c3)cc2s1` [Example 188, N-(6-(6-chloro-5-(phenylmethylsulfonamido)pyridin-3-yl)benzo[d]thiazol-2-yl)acetamide], the pIC50 in experiment [1] is 6.96; on PI3K α, 8.16; at PI3K β it was 7.60.
With `CC(=O)Nc1nc2ccc(-c3cnc(C)c(NS(=O)(=O)c4ccc(C(C)(C)C)cc4)c3)cc2s1` [Example 114, N-(6-(5-(((4-tert-butylphenyl)sulfonyl)amino)-6-methyl-3-pyridinyl)-1,3-benzothiazol-2-yl)acetamide], the pIC50 is 7.84 in experiment [1], 8.15 on PI3K α and 8.05 on PI3K β.
Consider `CC(=O)Nc1nc2ccc(-c3cccc(NS(=O)(=O)c4ccccc4F)n3)cc2s1` [Example 73, N-(6-(6-(2-Fluorophenylsulfonamido)pyridin-2-yl)benzo[d]thiazol-2-yl)acetamide], for which the pIC50 in experiment [1] is 6.50; on PI3K α it was 7.22; on PI3K β, 6.83.
Turning to `COc1ncc(-c2ccc3nc(NC(C)=O)sc3c2)cc1NC(C)C` [Example 145, N-(6-(6-methoxy-5-((1-methylethyl)amino)-3-pyridinyl)-1,3-benzothiazol-2-yl)acetamide], the pIC50 in experiment [1] was 6.07; on PI3K α it was 6.94; on PI3K β it was 6.37.
In the case of `CC(C)Nc1cc(-c2ccc3nc(N)sc3c2)cnc1Cl` [Example 155, 6-(6-chloro-5-((1-methylethyl)amino)-3-pyridinyl)-1,3-benzothiazol-2-amine], the results for the negative logarithm of the IC50 (pIC50) (in experiment [1]; at PI3K α; at PI3K β) were 5.70, 6.29 and 5.94, respectively.
The corresponding values for `CNc1nc2ccc(-c3cnc(Cl)c(NS(=O)(=O)c4c(C)cccc4Cl)c3)cc2s1` [Example 318, 2-chloro-N-(2-chloro-5-(2-(methylamino)-1,3-benzothiazol-6-yl)-3-pyridinyl)-6-methylbenzenesulfonamide] are 6.48, 7.95 and 7.37.
The corresponding values for `CC(=O)c1ccc(S(=O)(=O)Nc2cc(-c3ccc4nc(N)sc4c3)cnc2Cl)cc1` [Example 325, 4-acetyl-N-(5-(2-amino-1,3-benzothiazol-6-yl)-2-chloro-3-pyridinyl)benzenesulfonamide] are 6.33, 7.74 and 7.69.
The corresponding values for `COc1ccc(S(=O)(=O)Nc2cc(-c3ccc4nc(NC(C)=O)sc4c3)cnc2Cl)cc1` [Example 163, N-(6-(6-Chloro-5-(4-methoxyphenylsulfonamido)pyridin-3-yl)benzo[d]thiazol-2-yl)acetamide] are 8.42, 8.52 and 8.42.
For the molecule `CC(C)(O)c1ccc(S(=O)(=O)Nc2cc(-c3ccc4nc(N)sc4c3)cnc2Cl)cc1` [Example 324, N-(5-(2-amino-1,3-benzothiazol-6-yl)-2-chloro-3-pyridinyl)-4-(1-hydroxy-1-methylethyl)benzenesulfonamide], the figures for the negative logarithm of the IC50 (pIC50) (in experiment [1]; at PI3K α; at PI3K β) were 6.82, 7.96 and 7.77, respectively.
Consider `CC(=O)Nc1nc2ccc(-c3ccnc(NS(=O)(=O)c4ccc(C)cc4)n3)cc2s1` [Example 83, N-(6-(2-(((4-methylphenyl)sulfonyl)amino)-4-pyrimidinyl)-1,3-benzothiazol-2-yl)acetamide], for which the results for the negative logarithm of the IC50 (pIC50) (in experiment [1]; on PI3K α; on PI3K β) were 6.39, 7.46 and 7.21, respectively.
As to `CC(=O)Nc1nc2ccc(-c3ccnc(Sc4cccc(C)c4)n3)cc2s1` [Example 35, N-(6-(2-((3-methylphenyl)sulfanyl)-4-pyrimidinyl)-1,3-benzothiazol-2-yl)acetamide], the negative logarithm of the IC50 (pIC50) in experiment [1] was 5.45; at PI3K α, 7.24; on PI3K β, 5.97.
As for `CC(=O)Nc1nc2ccc(-c3cnc(Cl)c(NS(=O)(=O)c4cc(F)cc(F)c4)c3)cc2s1` [Example 176, N-(6-(6-chloro-5-(3,5-difluorophenylsulfonamido)pyridin-3-yl)benzo[d]thiazol-2-yl)acetamide], the figures for the pIC50 (in experiment [1]; at PI3K α; on PI3K β) were 7.74, 7.99 and 7.91, respectively.
In the case of `CC(=O)Nc1nc2ccc(-c3ccnc(Sc4ccccc4Cl)n3)cc2s1` [Example 125, N-(6-(2-((2-chlorophenyl)sulfanyl)-4-pyrimidinyl)-1,3-benzothiazol-2-yl)acetamide], the pIC50 is 6.26 in experiment [1], 7.60 on PI3K α and 6.37 on PI3K β.
For `CC(=O)Nc1nc2ccc(-c3cncc(NS(=O)(=O)c4cccc(C(F)(F)F)c4)c3)cc2s1` [Example 197, N-(6-(5-(3-(trifluoromethyl)phenylsulfonamido)pyridin-3-yl)benzo[d]thiazol-2-yl)acetamide], in that order: 7.10, 8.03 and 7.92.
In the case of `CC(=O)Nc1nc2ccc(-c3cnc(Cl)c(NS(=O)(=O)c4ccsc4)c3)cc2s1` [Example 187, N-(6-(6-chloro-5-(thiophene-4-sulfonamido)pyridin-3-yl)benzo[d]thiazol-2-yl)acetamide], the values for the negative-log IC50 (pIC50) (in experiment [1]; at PI3K α; at PI3K β) were 7.43, 7.68 and 7.38, respectively.
For `CC(=O)Nc1nc2ccc(-c3cncc(S(=O)(=O)c4ccccc4F)n3)cc2s1` [Example 121, N-(6-(6-((2-fluorophenyl)sulfonyl)-2-pyrazinyl)-1,3-benzothiazol-2-yl)acetamide], in that order: 6.72, 7.72 and 6.30.
For `CC(=O)Nc1nc2ccc(-c3ccnc(N(C)S(=O)(=O)c4ccc5ccccc5c4)n3)cc2s1` [Example 214, N-(6-(2-(N-methylnaphthalene-2-sulfonamido)pyrimidin-4-yl)benzo[d]thiazol-2-yl)acetamide], in that order: 6.59, 7.13 and 7.06.
The corresponding values for `CC(=O)Nc1nc2ccc(-c3cncc(NS(=O)(=O)c4ccc(F)cc4)c3)cc2s1` [Example 198, N-(6-(5-(4-fluorophenylsulfonamido)pyridin-3-yl)benzo[d]thiazol-2-yl)acetamide] are 7.39, 8.28 and 7.83.
Consider `CC(=O)Nc1nc2ccc(-c3cnc(Cl)c(NS(=O)(=O)c4ccc(C(C)=O)cc4)c3)cc2s1` [Example 119, N-(6-(5-(((4-acetylphenyl)sulfonyl)amino)-6-chloro-3-pyridinyl)-1,3-benzothiazol-2-yl)acetamide], for which the pIC50 in experiment [1] is 7.46; on PI3K α, 7.91; on PI3K β it was 7.87.
The corresponding values for `CCCS(=O)(=O)Nc1cc(-c2ccc3nc(NC(C)=O)sc3c2)cnc1Cl` [Example 177, N-(6-(6-chloro-5-(propylsulfonamido)pyridin-3-yl)benzo[d]thiazol-2-yl)acetamide] are 7.44, 7.81 and 7.46.
Turning to `COc1ccc(S(=O)(=O)c2cncc(-c3ccc4nc(NC(C)=O)sc4c3)n2)cc1` [Example 120, N-(6-(6-((4-methoxyphenyl)sulfonyl)-2-pyrazinyl)-1,3-benzothiazol-2-yl)acetamide], the pIC50 is 6.48 in experiment [1], 7.79 at PI3K α and 5.97 at PI3K β.
For `CC(=O)Nc1nc2ccc(-c3ccnc(N(C)S(=O)(=O)c4cccc(C)c4)n3)cc2s1` [Example 93, N-(6-(2-(N,3-Dimethylphenylsulfonamido)pyrimidin-4-yl)benzo[d]thiazol-2-yl)acetamide], the pIC50 in experiment [1] is 6.66; on PI3K α, 6.99; at PI3K β, 6.76.
For `CC(C)Nc1cc(-c2ccc3nc(NC(=O)C[C@@H]4CCCO4)sc3c2)cnc1Cl` [Example 151, N-(6-(6-chloro-5-((1-methylethyl)amino)-3-pyridinyl)-1,3-benzothiazol-2-yl)-2-((2S)-tetrahydro-2-furanyl)acetamide], in that order: under 5.30, 6.64 and 5.79.
As to `CN(C)CC(=O)Nc1nc2ccc(-c3cnc(Cl)c(N(C)C)c3)cc2s1` [Example 275, N-(6-(6-Chloro-5-(dimethylamino)pyridin-3-yl)benzo[d]thiazol-2-yl)-2-(dimethylamino)acetamide], the figures for the pIC50 (in experiment [1]; at PI3K α; on PI3K β) were 6.21, 6.51 and 5.54, respectively.

(Values after patent US7928140B2, “Benzothiazole PI3 kinase modulators for cancer treatment” (Amgen Inc., priority 2007, dated 2011).)
